Results reported in US20100105694A1, “SUBSTITUTED PYRAZINONE DERIVATIVES FOR USE AS A MEDICINE” (priority 2006, published 2010).

Key:
5HT-Transporter = molecular target: T1, 5HT-Transporter (Homo sapiens, UniProt P31645); assay: Binding experiment for the 5HT-transporter ([3H]paroxetine, human platelet membranes); conditions: [3H]paroxetine 0.5 nM, read-out: h-5HTT pIC50 (converted)
T1 construct: Human platelet membranes (Oceanix Biosciences Corporation, Hanover, Md., USA) were thawed; tissue Oceanix Biosciences Corporation; host or cells: human platelet membranes
Experimental: (§1) The interaction of a compound of Formula (I) with α2C-adrenoceptor receptors was assessed in in vitro radioligand binding experiments. In general, a low concentration of a radioligand with a high binding affinity for a particular receptor or transporter is incubated with a sample of a tissue preparation enriched in a particular receptor or transporter or with a preparation of cells expressing cloned human receptors in a buffered medium. During the incubation, the radioligand binds to the receptor or transporter. When equilibrium of binding is reached, the receptor bound radioactivity is separated from the non-bound radioactivity, and the receptor- or transporter-bound activity is counted. The interaction of the test compounds with the receptor is assessed in competition binding experiments. Various concentrations of the test compound are added to the incubation mixture containing the receptor- or transporter preparation and the radioligand. The test compound in proportion to its binding affinity and its concentration inhibits binding of the radioligand. The radioligand used for hα2A and hα2C receptor binding was [^3H]-raulwolscine.
Human platelet membranes (Oceanix Biosciences Corporation, Hanover, Md., USA) were thawed, diluted in buffer (Tris-HCl 50 mM, 120 mM NaCl and 5 mM KCl) and quickly (max 3 s) homogenised with an Ultraturrax homogenizer. […] Incubation was stopped by rapid filtration of the incubation mixture over GF/B filters, pre-wetted with 0.1% polyethyleneamine, using a Filtermate196 harvester (Packard, Meriden, Conn.). Filters were rinsed extensively with ice-cold buffer and radioactivity on the filters was counted in a Topcount liquid scintillation counter (Packard, Meriden, Conn.). Data were expressed as cpm. Imipramine (at 1 μM final concentration) was used to determine the non-specific binding.
(§2) Data from assays in the presence of compound were calculated as a percentage of total binding measured in the absence of test compound. Inhibition curves, plotting percent of total binding versus the log value of the concentration of the test compound, were automatically generated, and sigmoidal inhibition curves were fitted using non-linear regression. The pIC50 values of test compounds were derived from individual curves.

[1] = molecular target: T2, human adrenergic-α2A receptor (Homo sapiens, UniProt P08913); assay: Radioligand binding experiment for hα2A receptor ([3H]raulwolscine, CHO cell membranes); conditions: [3H]raulwolscine 1 nM, membranes of CHO cells transfected with human α2A receptor; read-out: h-α2A pIC50 (converted)
T2 construct: expressed in transfected cells; host or cells: CHO cells, stably transfected; membranes
T2 sequence (P08913 1-465): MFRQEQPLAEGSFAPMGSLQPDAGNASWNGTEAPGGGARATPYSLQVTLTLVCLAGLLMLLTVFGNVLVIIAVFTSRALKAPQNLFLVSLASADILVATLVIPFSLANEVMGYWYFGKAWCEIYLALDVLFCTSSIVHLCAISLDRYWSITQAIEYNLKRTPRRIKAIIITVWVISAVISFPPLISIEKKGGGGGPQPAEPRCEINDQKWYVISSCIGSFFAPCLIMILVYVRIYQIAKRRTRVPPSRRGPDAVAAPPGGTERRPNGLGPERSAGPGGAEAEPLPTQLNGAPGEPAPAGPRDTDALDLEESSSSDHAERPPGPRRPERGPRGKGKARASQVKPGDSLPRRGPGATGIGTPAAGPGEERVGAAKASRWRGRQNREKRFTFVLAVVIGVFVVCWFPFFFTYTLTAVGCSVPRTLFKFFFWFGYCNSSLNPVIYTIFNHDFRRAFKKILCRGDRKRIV
Experimental: as §1
(§3) CHO cells, stabile transfected with human adrenergic-α2A and α2C receptor cDNA, were cultured in Dulbecco's Modified Eagle's Medium (DMEM)/Nutrient mixture Ham's F12 (ratio 1:1) (Gibco, Gent-Belgium) supplemented with 10% heat inactivated fetal calf serum (Life Technologies, Merelbeke-Belgium) and antibiotics (100 IU/ml penicillin G, 100 μg/ml streptomycin sulphate, 110 μg/ml pyruvic acid and 100 μg/ml L-glutamine). One day before collection, cells were induced with 5 mM sodiumbutyrate. Upon 80-90% of confluence, cells were scraped in phosphate buffered saline without Ca^2+ and Mg^2+ and collected by centrifugation at 1500×g for 10 minutes. The cells were homogenised in Tris-HCl 50 mM using an Ultraturrax homogenizer and centrifuged for 10 minutes at 23,500×g. The pellet was washed once by resuspension and rehomogenization and the final pellet was resuspended in Tris-HCl, divided in 1 ml aliquots and stored at −70° C.
(§4) Membranes were thawed and re-homogenized in incubation buffer (glycylglycine 25 mM, pH 8.0). […] Filters were rinsed extensively with ice-cold rinsing buffer (Tris-HCl 50 mM pH 7.4). Filter-bound radioactivity was determined by scintillation counting in a Topcount (Packard, Meriden, Conn.) and results were expressed as counts per minute (cpm). Non-specific binding was determined in the presence of 1 μM oxymetazoline for the hα2A receptor and 1 μM spiroxatrine for hα2C receptors.
as §2

[2] = molecular target: T3, human adrenergic-α2C receptor (Homo sapiens, UniProt P18825); assay: Radioligand binding experiment for α2C-adrenoceptor ([3H]raulwolscine, CHO cell membranes); conditions: [3H]raulwolscine 1 nM, membranes of CHO cells transfected with human α2C receptor; read-out: h-α2C pIC50 (converted)
T3 construct: expressed in transfected cells; host or cells: CHO cells, stably transfected; membranes
T3 sequence (P18825 1-462): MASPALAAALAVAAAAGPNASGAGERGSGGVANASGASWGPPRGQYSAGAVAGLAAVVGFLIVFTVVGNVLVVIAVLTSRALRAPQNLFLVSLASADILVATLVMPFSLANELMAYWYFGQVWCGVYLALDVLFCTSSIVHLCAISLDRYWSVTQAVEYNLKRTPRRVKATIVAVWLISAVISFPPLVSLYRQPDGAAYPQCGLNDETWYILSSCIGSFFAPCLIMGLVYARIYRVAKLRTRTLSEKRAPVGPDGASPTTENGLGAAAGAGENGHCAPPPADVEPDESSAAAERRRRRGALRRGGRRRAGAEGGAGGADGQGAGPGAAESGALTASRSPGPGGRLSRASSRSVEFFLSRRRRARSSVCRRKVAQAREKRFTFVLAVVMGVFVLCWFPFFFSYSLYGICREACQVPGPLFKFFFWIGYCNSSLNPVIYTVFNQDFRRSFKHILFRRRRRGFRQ
Experimental: as §1, §3, §4, §2

T1 sequence (P31645 whole entry): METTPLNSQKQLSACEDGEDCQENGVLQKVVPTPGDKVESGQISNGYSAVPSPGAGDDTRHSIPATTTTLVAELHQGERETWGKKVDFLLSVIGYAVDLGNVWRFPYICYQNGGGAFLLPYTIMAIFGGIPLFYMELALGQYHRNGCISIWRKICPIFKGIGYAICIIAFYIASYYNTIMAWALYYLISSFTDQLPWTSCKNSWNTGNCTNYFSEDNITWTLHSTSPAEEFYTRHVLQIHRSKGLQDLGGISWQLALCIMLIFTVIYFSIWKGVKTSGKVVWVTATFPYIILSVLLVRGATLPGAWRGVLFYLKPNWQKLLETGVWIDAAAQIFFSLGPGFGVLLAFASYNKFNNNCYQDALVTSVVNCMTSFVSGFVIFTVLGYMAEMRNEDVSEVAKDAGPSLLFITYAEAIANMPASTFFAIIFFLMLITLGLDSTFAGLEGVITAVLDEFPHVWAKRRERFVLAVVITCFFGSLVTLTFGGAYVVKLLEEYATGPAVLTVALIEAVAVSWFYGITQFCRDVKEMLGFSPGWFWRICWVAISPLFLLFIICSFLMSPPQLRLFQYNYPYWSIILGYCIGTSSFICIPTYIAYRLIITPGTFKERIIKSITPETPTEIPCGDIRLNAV

SMILES	IC50 (5HT-Transporter)	IC50 [1]	IC50 [2]
O=c1c(N2CCN(CCc3ccccc3)CC2)nccn1C/C=C/c1ccccc1 [Compound 10-6]	5010 nM	1000 nM	501 nM
O=c1c(N2CCN(CCc3ccccc3)CC2)nccn1Cc1ccc(-c2ccccc2)cc1 [Compound 10-8]	5010 nM	794 nM	631 nM
O=c1c(N2CCN(CCc3ccccc3)CC2)nccn1Cc1ccc2ccccc2c1 [Compound 10-10]	3160 nM	501 nM	316 nM
O=c1c(N2CCN(CCc3ccccc3)CC2)nccn1Cc1ccc(Cl)s1 [Compound 10-11]	> 10000 nM	794 nM	200 nM
COc1ccc(-c2nnc(Cn3ccnc(N4CCN(CCc5ccccc5)CC4)c3=O)o2)cc1 [Compound 10-12]	> 10000 nM	1260 nM	501 nM
NCc1ccc(Cn2ccnc(NC3CCN(Cc4ccc(OCc5ccccc5)cc4)CC3)c2=O)cc1 [Compound 11-1]	2000 nM	251 nM	631 nM
CN(C)CCCn1ccnc(NC2CCN(Cc3ccc(OCc4ccccc4)cc3)CC2)c1=O [Compound 11-2]	> 10000 nM	794 nM	794 nM
CC(C)(C)OC(=O)NCCCn1ccnc(NC2CCN(Cc3ccc(OCc4ccccc4)cc3)CC2)c1=O [Compound 11-3]	> 10000 nM	794 nM	631 nM
O=c1c(NC2CCN(Cc3ccc(OCc4ccccc4)cc3)CC2)nccn1CCN1CCCCC1 [Compound 11-4]	> 10000 nM	1580 nM	794 nM
O=C1c2ccccc2C(=O)N1CCCn1ccnc(NC2CCN(Cc3ccc(OCc4ccccc4)cc3)CC2)c1=O [Compound 11-5]	3160 nM	794 nM	251 nM
O=c1c(NC2CCN(Cc3ccc(OCc4ccccc4)cc3)CC2)nccn1Cc1cccc(Br)c1 [Compound 11-6]	1580 nM	631 nM	794 nM
O=c1c(NC2CCN(Cc3ccc(OCc4ccccc4)cc3)CC2)nccn1Cc1ccc(Br)cc1 [Compound 11-7]	1580 nM	631 nM	631 nM
